Source: patent US20260250412A1, “COMBINATION OF ANTIBODY-DRUG CONJUGATE AND ANTI-PD-1 ANTIBODY, AND USE THEREOF” (GENEQUANTUM HEALTHCARE (SUZHOU) CO., LTD., priority 2023, published 2026)

Columns and labels:
[1] = tested on: NCI-N87 mouse xenograft tumor; test: In vivo efficacy, NCI-N87 mouse xenograft tumor; parameters: species or system BALB/c nude mice; conditions: Table 14, BIW*6, 3 mg/kg
[2] = tested on: human breast cancer BR-05-0028 model; test: In vivo efficacy, human breast cancer BR-05-0028 mouse xenograft tumor; parameters: species or system BALB/c nude mice
Description: II. The tumor diameter was measured with a vernier caliper and the tumor volume was calculated according to the formula V=0.5a×b^2 (where a is the longest diameter of the tumor and b is the shortest diameter of the tumor). […] Animals in each group were administered by tail vein injection, and the control group was given an equal volume of vehicle. […] T/C and TGI values were calculated using tumor volume. The calculation formula is as follows: T/C %=TRTV/CRTV×100% (TRTV: RTV of the treatment group; CRTV: RTV of the vehicle control group). The relative tumor volume (RTV) was calculated based on the results of tumor measurement, and the calculation formula was RTV=Vt/V0, where V0 was the average tumor volume measured at the time of grouping (i.e., D0), Vt was the average tumor volume at one measurement, and TRTV and CRTV took the same day of data.
The human breast cancer BR-05-0028 model (IHC 3±) was derived from tumor samples resected in clinical surgery. The tumor samples were inoculated into nude mice at the P0 generation, and the tumor tissue used in this example was the P5 generation. Tumor tissue with a volume of about 30 mm^3 was subcutaneously inoculated into the right back dorsum of SPF female BALB/c nude mice aged 6-8 weeks.

[3] = tested on: MDA-MB-468 mouse xenograft tumor; test: In vivo efficacy, MDA-MB-468 mouse xenograft tumor; parameters: species or system BALB/c Nude mice; conditions: 4.5 mg/kg, intravenously
Description: The MDA-MB-468 tumor cells (ATCC, HTB-132) were maintained in vitro as a monolayer culture in L-15 medium supplemented with 10% fetal bovine serum and 1% Antibiotic-Antimycotic at 37° C. in an atmosphere of 0% CO2 in air. The cells growing in an exponential growth phase will be harvested and counted for tumor inoculation. For in vivo anti-tumor efficacy study, 10×10^6 MDA-MB-468 human breast cancer cells (Trop2 positive) in 0.2 mL of PBS with Matrigel (1:1) were inoculated subcutaneously in the right flank in BALB/c Nude mice. […] The tumor volume was measured twice weekly with a caliper. T/C and TGI values were calculated using tumor volume.

[4] = Table 15, BIW*6, 5 mg/kg, Day 21

Trodelvy was tested, and the “Tumor volume (mm^3) Day 32” value [1] was 864 ± 114 mm^3, the “T/C (%)” value ([1]; Day 32) was 65.85% and the “TGI (%)” value ([1]; Day 32) was 41.10%. The “Tumor volume (mm^3) Day 0” value ([1]; baseline at grouping) was 227 ± 21 mm^3, the “Tumor volume (mm^3) Day 21” value ([2]; Table 15, BIW*6, 5 mg/kg) was 5 ± 2 mm^3 and the “T/C (%)” value [2, 4] was 0.35%. For the same substance, the “TGI (%)” value [2, 4] was 111.76%, the “Tumor volume (mm^3) Day 0” value ([2]; Table 15, BIW*6, 5 mg/kg, baseline at grouping) was 171 ± 29 mm^3 and the “tumor growth inhibition (in words)” value ([2]; effect example 3.1.3, 5 mg/kg (ADC-1 also 10 mg/kg), after 21 days) was “able to significantly inhibit tumor growth”. For the same substance, the “Tumor volume (mm^3) on day 35” value [3] was 535 ± 60 mm^3, the “T/C (%)” value ([3]; day 35) was 78.73% and the “TGI (%)” value ([3]; day 35) was 29.24%.
